Laboratory results as given in patent US6914045B2, “Glycopeptide antibiotics” (Wyeth Holdings Corporation, priority 2001, dated 2005).
Values after ≈ are worked out from the molar mass of the structure shown.

What was measured:
[1] = test system: Staphylococcus aureus-SMITH (GC 4543); test: acute lethal infection in mice; type: in vivo; settings: acute lethal infection, female CD-1 mice, intraperitoneal challenge, intravenous 30 min. after infection, 7 day survival
Summary of the method: (§1)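 Protocol: bacteria suspended in trypticase soy broth or hog gastric mucin injected ip into female CD-1 mice at a level killing untreated controls in 24-48 hr; compound given iv in saline or 5% dextrose 30 min post-challenge; five mice per dose; ED50 derived from pooled 7 day survival of three runs.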

[2] = test system: Enterococcus faecalis (GC 6189); test: acute lethal infection in mice; type: in vivo; settings: female CD-1 mice, intraperitoneal challenge, intravenous 30 min. after infection, 7 day survival
Summary of the method: as §1

Enterococcus sp. = test: in vitro antibacterial evaluation, MIC by broth dilution; type: cell-based; settings: broth dilution, 18 hours at 35° C.
Summary of the method: (§2)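 Inoculum 5×10^5 CFU/mL; concentrations 64 to 0.06 μg/mL; MIC defined as lowest inhibitory level. Conducted by broth dilution under NCCLS guidelines.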

Staphylococcus sp. = test: as above; type: cell-based; settings: broth dilution, 18 hours at 35° C.
Summary of the method: as §2

Streptococcus sp. = test: as above; type: cell-based; settings: broth dilution, 18 hours at 35° C.
Summary of the method: as §2

Escherichia coli = test: as above; type: cell-based; settings: 18 hours at 35° C.
Summary of the method: as §2

For `Cc1ccc(CC2OCC3OC(OC4C(CO)OC(Oc5ccc(CC6NC(=O)C(C(C)c7ccccc7)NC(=O)CNC(=O)C(CO)NC(=O)C(C(O)C7CNC(=N)N7C7OC(CO)C(O)C(O)C7O)NC(=O)C(C(O)C7CNC(=N)N7)NC6=O)cc5)C(O)C4O)C(O)C(O)C3O2)cc1` (stereo not drawn) [Example 119, Cyclo[glycyl-β-methylphenylalanyl-O-[4-O-[4,6-O-(4-methylphenethylidene)hexopyranosyl]-hexopyranosyl]tyrosyl-3-(2-iminoimidazolidin-4-yl)seryl-3-(3-hexopyranosyl-2-iminoimidazolidin-4-yl)serylseryl]], the median effective dose (ED50), Staphylococcus aureus-SMITH (GC 4543) [1] was 0.19 mg/kg, the median effective dose (ED50), Enterococcus faecalis (GC 6189) [2] was 0.41 mg/kg and the “MIC Enterococcus avium (GC 4558)” value (Enterococcus sp.; Enterococcus avium (GC 4558)) was 4 µg/mL (≈ 2.83 µM). The “MIC Enterococcus faecalis (ATCC 29212)” value (Enterococcus sp.; Enterococcus faecalis (ATCC 29212)) was 2 µg/mL (≈ 1.42 µM), the “MIC Enterococcus faecalis (GC 2242)” value (Enterococcus sp.; Enterococcus faecalis (GC 2242)) was 2 µg/mL (≈ 1.42 µM) and the “MIC Enterococcus faecalis (GC 2691)” value (Enterococcus sp.; Enterococcus faecalis (GC 2691)) was 2 µg/mL (≈ 1.42 µM). For the same compound, the “MIC Enterococcus faecalis (GC 3059)” value (Enterococcus sp.; Enterococcus faecalis (GC 3059)) was >64 µg/mL, the “MIC Enterococcus faecalis (GC 4552)” value (Enterococcus sp.; Enterococcus faecalis (GC 4552)) was 2 µg/mL (≈ 1.42 µM) and the “MIC Enterococcus faecalis (GC 4553)” value (Enterococcus sp.; Enterococcus faecalis (GC 4553)) was 4 µg/mL (≈ 2.83 µM). For the same compound, the “MIC Enterococcus faecalis (GC 4554)” value (Enterococcus sp.; Enterococcus faecalis (GC 4554)) was 2 µg/mL (≈ 1.42 µM), the “MIC Enterococcus faecalis (GC 6189)” value (Enterococcus sp.; Enterococcus faecalis (GC 6189)) was 2 µg/mL (≈ 1.42 µM) and the “MIC Enterococcus faecium (GC 2243)” value (Enterococcus sp.; Enterococcus faecium (GC 2243)) was 4 µg/mL (≈ 2.83 µM). The “MIC Enterococcus faecium (GC 4556)” value (Enterococcus sp.; Enterococcus faecium (GC 4556)) was 2 µg/mL (≈ 1.42 µM), the “MIC Enterococcus faecium (GC 4557)” value (Enterococcus sp.; Enterococcus faecium (GC 4557)) was 1 µg/mL (≈ 0.708 µM) and the “MIC Enterococcus faecalis (ATCC 29212)” value (Enterococcus sp.; strain ATCC 29212) was 2 µg/mL (≈ 1.42 µM). The “MIC Enterococcus faecalis (GC 2242)” value (Enterococcus sp.; strain GC 2242) was 2 µg/mL (≈ 1.42 µM), the “MIC Enterococcus faecium (GC 2243)” value (Enterococcus sp.; strain GC 2243) was 4 µg/mL (≈ 2.83 µM) and the “MIC Enterococcus faecalis (GC 2691)” value (Enterococcus sp.; strain GC 2691) was 2 µg/mL (≈ 1.42 µM). For the same compound, the “MIC Enterococcus faecalis (GC 3059)” value (Enterococcus sp.; strain GC 3059) was >64 µg/mL, the “MIC Enterococcus faecalis (GC 4552)” value (Enterococcus sp.; strain GC 4552) was 2 µg/mL (≈ 1.42 µM) and the “MIC Enterococcus faecalis (GC 4553)” value (Enterococcus sp.; strain GC 4553) was 4 µg/mL (≈ 2.83 µM). For the same compound, the “MIC Enterococcus faecalis (GC 4554)” value (Enterococcus sp.; strain GC 4554) was 2 µg/mL (≈ 1.42 µM), the “MIC Enterococcus faecium (GC 4556)” value (Enterococcus sp.; strain GC 4556) was 2 µg/mL (≈ 1.42 µM) and the “MIC Enterococcus faecium (GC 4557)” value (Enterococcus sp.; strain GC 4557) was 1 µg/mL (≈ 0.708 µM). The “MIC Enterococcus avium (GC 4558)” value (Enterococcus sp.; strain GC 4558) was 4 µg/mL (≈ 2.83 µM), the “MIC Enterococcus faecalis (GC 6189)” value (Enterococcus sp.; strain GC 6189) was 2 µg/mL (≈ 1.42 µM) and the “MIC Coagulase Negative Staphylococcus (GC 4547)” value (Staphylococcus sp.) was 1 µg/mL (≈ 0.708 µM). The “MIC Coagulase Negative Staphylococcus (GC 4548)” value (Staphylococcus sp.) was 1 µg/mL (≈ 0.708 µM), the “MIC Coagulase Negative Staphylococcus (GC 4549)” value (Staphylococcus sp.) was 1 µg/mL (≈ 0.708 µM) and the “MIC Coagulase Negative Staphylococcus (GC 4551)” value (Staphylococcus sp.) was 1 µg/mL (≈ 0.708 µM). For the same compound, the “MIC Coagulase Negative Staphylococcus (GC 6257)” value (Staphylococcus sp.) was <0.5 µg/mL, the “MIC Staphylococcus aureus (ATCC 29213)” value (Staphylococcus sp.) was 1 µg/mL (≈ 0.708 µM) and the “MIC Staphylococcus aureus (GC 1131)” value (Staphylococcus sp.) was 1 µg/mL (≈ 0.708 µM). The “MIC Staphylococcus aureus (GC 3051)” value (Staphylococcus sp.) was 1 µg/mL (≈ 0.708 µM), the “MIC Staphylococcus aureus (GC 3053)” value (Staphylococcus sp.) was 2 µg/mL (≈ 1.42 µM) and the “MIC Staphylococcus aureus (GC 4541)” value (Staphylococcus sp.) was 1 µg/mL (≈ 0.708 µM). For the same compound, the “MIC Staphylococcus aureus (GC 4542)” value (Staphylococcus sp.) was 1 µg/mL (≈ 0.708 µM), the “MIC Staphylococcus aureus (GC 4544)” value (Staphylococcus sp.) was 1 µg/mL (≈ 0.708 µM) and the “MIC Staphylococcus aureus (GC 4545)” value (Staphylococcus sp.) was 1 µg/mL (≈ 0.708 µM). For the same compound, the “MIC Staphylococcus aureus-SMITH (GC 4543)” value (Staphylococcus sp.) was 1 µg/mL (≈ 0.708 µM), the “MIC Staphylococcus haemolyticus (GC 4546)” value (Staphylococcus sp.) was 1 µg/mL (≈ 0.708 µM) and the “MIC Staphylococcus aureus (GC 1131)” value (Staphylococcus sp.; inoculum 5×10^5 CFU/mL, strain GC 1131) was 1 µg/mL (≈ 0.708 µM). The “MIC Staphylococcus aureus (ATCC 29213)” value (Staphylococcus sp.; strain ATCC 29213) was 1 µg/mL (≈ 0.708 µM), the “MIC Staphylococcus aureus (GC 3051)” value (Staphylococcus sp.; strain GC 3051) was 1 µg/mL (≈ 0.708 µM) and the “MIC Staphylococcus aureus (GC 3053)” value (Staphylococcus sp.; strain GC 3053) was 2 µg/mL (≈ 1.42 µM). For the same compound, the “MIC Staphylococcus aureus (GC 4541)” value (Staphylococcus sp.; strain GC 4541) was 1 µg/mL (≈ 0.708 µM), the “MIC Staphylococcus aureus (GC 4542)” value (Staphylococcus sp.; strain GC 4542) was 1 µg/mL (≈ 0.708 µM) and the “MIC Staphylococcus aureus (GC 4544)” value (Staphylococcus sp.; strain GC 4544) was 1 µg/mL (≈ 0.708 µM). The “MIC Staphylococcus aureus (GC 4545)” value (Staphylococcus sp.; strain GC 4545) was 1 µg/mL (≈ 0.708 µM), the “MIC Staphylococcus haemolyticus (GC 4546)” value (Staphylococcus sp.; strain GC 4546) was 1 µg/mL (≈ 0.708 µM) and the “MIC Coagulase Negative Staphylococcus (GC 4547)” value (Staphylococcus sp.; strain GC 4547) was 1 µg/mL (≈ 0.708 µM). For the same compound, the “MIC Coagulase Negative Staphylococcus (GC 4548)” value (Staphylococcus sp.; strain GC 4548) was 1 µg/mL (≈ 0.708 µM), the “MIC Coagulase Negative Staphylococcus (GC 4549)” value (Staphylococcus sp.; strain GC 4549) was 1 µg/mL (≈ 0.708 µM) and the “MIC Coagulase Negative Staphylococcus (GC 4551)” value (Staphylococcus sp.; strain GC 4551) was 1 µg/mL (≈ 0.708 µM). For the same compound, the “MIC Coagulase Negative Staphylococcus (GC 6257)” value (Staphylococcus sp.; strain GC 6257) was <0.5 µg/mL, the “MIC Staphylococcus aureus-SMITH (GC 4543)” value (Staphylococcus sp.; strain SMITH GC 4543) was 1 µg/mL (≈ 0.708 µM) and the “MIC Streptococcus agalactiae (GC 4564)” value (Streptococcus sp.; Streptococcus agalactiae (GC 4564)) was <0.5 µg/mL. For the same compound, the “MIC Streptococcus pneumoniae (ATCC 6301)” value (Streptococcus sp.; Streptococcus pneumoniae (ATCC 6301)) was <0.5 µg/mL, the “MIC Streptococcus pneumoniae (GC 1894)” value (Streptococcus sp.; Streptococcus pneumoniae (GC 1894)) was <0.5 µg/mL and the “MIC Streptococcus pneumoniae (GC 4565)” value (Streptococcus sp.; Streptococcus pneumoniae (GC 4565)) was 1 µg/mL (≈ 0.708 µM). The “MIC Streptococcus pyogenes (GC 4563)” value (Streptococcus sp.; Streptococcus pyogenes (GC 4563)) was <0.5 µg/mL, the “MIC Streptococcus pneumoniae (ATCC 6301)” value (Streptococcus sp.; strain ATCC 6301) was <0.5 µg/mL and the “MIC Streptococcus pneumoniae (GC 1894)” value (Streptococcus sp.; strain GC 1894) was <0.5 µg/mL. The “MIC Streptococcus pyogenes (GC 4563)” value (Streptococcus sp.; strain GC 4563) was <0.5 µg/mL, the “MIC Streptococcus agalactiae (GC 4564)” value (Streptococcus sp.; strain GC 4564) was <0.5 µg/mL and the “MIC Streptococcus pneumoniae (GC 4565)” value (Streptococcus sp.; strain GC 4565) was 1 µg/mL (≈ 0.708 µM). The “MIC Escherichia coli (ATCC 25922)” value (Escherichia coli; strain ATCC 25922) was 32 µg/mL (≈ 22.7 µM), the “MIC Escherichia coli (GC 4559)” value (Escherichia coli; strain GC 4559) was 32 µg/mL (≈ 22.7 µM) and the “MIC Escherichia coli (GC 4560)” value (Escherichia coli; strain GC 4560) was 1 µg/mL (≈ 0.708 µM).
